Laboratory results taken from patent publication US20170304388A1, “NEW INDICATION OF CARDIOVASCULAR DRUGS FOR PREPARATION OF CANCER INHIBITION PHARMACEUTICAL COMPOSITION” (LAUNX BIOMEDICAL CO., LTD., priority 2014, published 2017).
Where a name gives a salt, the structure may show the parent alone.

Tested on: cancer cell lines
Assay: Growth inhibitory effects on the panel of cancer cell lines
Type: cell-based
Conditions: drug 10 μM, 72 hours, WST-1

`C[N+](C)(C)C[C@H](O)CC(=O)[O-]` [L-carnitine (Levocarnitine), L-carnitine] was tested, and the “inhibition effect on different cancer cell lines (in words)” value was “significant inhibition effect”.

For `COc1cc2nc(N3CCN(C(=O)C4COc5ccccc5O4)CC3)nc(N)c2cc1OC` (stereo not drawn) [Doxazosin mesylate], the “inhibition effect on different cancer cell lines (in words)” value was “significant inhibition effect”.

`CC(C)(Sc1cc(C(C)(C)C)c(O)c(C(C)(C)C)c1)Sc1cc(C(C)(C)C)c(O)c(C(C)(C)C)c1` [Probucol] was tested, and the “inhibition effect on different cancer cell lines (in words)” value was “significant inhibition effect”.

In the case of `NC(N)=Nc1nc(CSCCC(N)=NS(N)(=O)=O)cs1` [Famotidine (Pepcid), Famotidine], the “inhibition effect on different cancer cell lines (in words)” value is reported as “significant inhibition effect”.

For `CCCCc1ncc(/C=C(\Cc2cccs2)C(=O)O)n1Cc1ccc(C(=O)O)cc1` [Eprosartan Mesylate], the “inhibition effect on different cancer cell lines (in words)” value was “significant inhibition effect”.

For `N=C(N)c1ccc2cc(OC(=O)c3ccc(N=C(N)N)cc3)ccc2c1` [Nafamostat mesylate], the “inhibition effect on different cancer cell lines (in words)” value was “significant inhibition effect”.

In the case of `CC(C)NCC(O)COc1cccc2ccccc12` (stereo not drawn) [Propranolol HCl], the “inhibition effect on different cancer cell lines (in words)” value is reported as “significant inhibition effect”.

For `Cc1cccc(C)c1OCC(C)N` (stereo not drawn) [Mexiletine HCl], the “inhibition effect on different cancer cell lines (in words)” value was “significant inhibition effect”.

In the case of `CNCC(O)c1ccc(O)c(O)c1` (racemic) [DL-Adrenaline], the “inhibition effect on different cancer cell lines (in words)” value is reported as “significant inhibition effect”.

For `CC(C)NCC(O)COc1cccc2[nH]ccc12` (stereo not drawn) [Pindolol], the “inhibition effect on different cancer cell lines (in words)” value was “significant inhibition effect”.

For `C[C@]12CCC(=O)C=C1C=C[C@@H]1[C@@H]2CC[C@@]2(C)[C@H]1CC[C@@]2(O)CCC(=O)O` [Potassium Canrenoate], the “inhibition effect on different cancer cell lines (in words)” value was “significant inhibition effect”.

In the case of `CCOC(=O)OC(C)OC1=C(C(=O)Nc2ccccn2)N(C)S(=O)(=O)c2ccccc21` (stereo not drawn) [Ampiroxicam], the “inhibition effect on different cancer cell lines (in words)” value is reported as “significant inhibition effect”.

In the case of `COC(=O)CCc1ccc(OCC(O)CNC(C)C)cc1` (stereo not drawn) [Esmolol HCl], the “inhibition effect on different cancer cell lines (in words)” value is reported as “significant inhibition effect”.

In the case of `CCCC(CCC)C(=O)[O-].[Na+]` [Valproic acid sodium salt], the “inhibition effect on different cancer cell lines (in words)” value is reported as “significant inhibition effect”.

For `Cc1cccc(Nc2ccncc2S(=O)(=O)NC(=O)NC(C)C)c1` [Torsemide (Demadex), Torsemide], the “inhibition effect on different cancer cell lines (in words)” value was “significant inhibition effect”.

For `NS(=O)(=O)c1cc2c(cc1Cl)N=CNS2(=O)=O` [Chlorothiazide], the “inhibition effect on different cancer cell lines (in words)” value was “significant inhibition effect”.

For `C[N+](C)(C)CC(O)CC(=O)O.[Cl-]` (racemic) [DL-Carnitine hydrochloride], the “inhibition effect on different cancer cell lines (in words)” value was “significant inhibition effect”.

`CC(C)C[C@H](NC(=O)[C@H](CCc1ccccc1)NC(=O)CN1CCOCC1)C(=O)N[C@@H](Cc1ccccc1)C(=O)N[C@@H](CC(C)C)C(=O)[C@@]1(C)CO1` [Carfilzomib (PR-171), Carfilzomib] was tested, and the “inhibition effect on different cancer cell lines (in words)” value was “significant inhibition effect”.

With `CCCC(=O)OCOC(=O)C1=C(C)NC(C)=C(C(=O)OC)C1c1cccc(Cl)c1Cl` (stereo not drawn) [Cleviprex (Clevidipine), Clevidipine] the “inhibition effect on different cancer cell lines (in words)” value was “significant inhibition effect”.

With `CCOC(=O)[C@H](CCc1ccccc1)N[C@@H](C)C(=O)N1CCC[C@H]1C(=O)O` [Enalapril maleate (Vasotec), Enalapril maleate] the “inhibition effect on different cancer cell lines (in words)” value was “significant inhibition effect”.

For `CNCC(=O)c1ccc(O)c(O)c1` [Adrenalone HCl], the “inhibition effect on different cancer cell lines (in words)” value was “significant inhibition effect”.

With `Nc1ncnc2c1ncn2[C@@H]1O[C@H](CO)[C@@H](O)[C@H]1O` [Adenosine (Adenocard), Adenosine] the “inhibition effect on different cancer cell lines (in words)” value was “significant inhibition effect”.

For `OC[C@@H](O)[C@@H](O)[C@H](O)[C@H](O)CO` [D-Mannitol (Osmitrol), D-Mannitol], the “inhibition effect on different cancer cell lines (in words)” value was “significant inhibition effect”.

With `COC(=O)[C@@H]1CC2=CC(=O)CC[C@]2(C)[C@@]23O[C@@H]2C[C@@]2(C)[C@@H](CC[C@@]24CCC(=O)O4)[C@H]13` [Eplerenone] the “inhibition effect on different cancer cell lines (in words)” value was “significant inhibition effect”.

With `Nc1ccn([C@@H]2O[C@H](CO)[C@@H](O)[C@H]2O)c(=O)n1` [Cytidine] the “inhibition effect on different cancer cell lines (in words)” value was “significant inhibition effect”.

`CCOC(=O)[C@H](CCc1ccccc1)N[C@@H](C)C(=O)N1C(=O)N(C)C[C@H]1C(=O)O` [Imidapril (Tanatril) HCl, Imidapril HCl] was tested, and the “inhibition effect on different cancer cell lines (in words)” value was “significant inhibition effect”.

With `COc1ccc([C@@H]2Sc3ccccc3N(CCN(C)C)C(=O)[C@@H]2OC(C)=O)cc1` [Diltiazem HCl (Tiazac), Diltiazem HCl] the “inhibition effect on different cancer cell lines (in words)” value was “significant inhibition effect”.

In the case of `CCOc1nc2cccc(C(=O)OC(C)OC(=O)OC3CCCCC3)c2n1Cc1ccc(-c2ccccc2-c2nnn[nH]2)cc1` (stereo not drawn) [Candesartan cilexetil (Atacand), Candesartan cilexetil], the “inhibition effect on different cancer cell lines (in words)” value is reported as “significant inhibition effect”.

With `Cc1onc(-c2ccccc2Cl)c1C(=O)N[C@@H]1C(=O)N2[C@@H]1SC(C)(C)[C@@H]2C(=O)O` [Cloxacillin sodium (Cloxacap), Cloxacillin sodium] the “inhibition effect on different cancer cell lines (in words)” value was “significant inhibition effect”.

For `CCOC(=O)C1=C[C@@H](OC(CC)CC)[C@H](NC(C)=O)[C@@H](N)C1` [Oseltamivir phosphate (Tamiflu), Oseltamivir phosphate], the “inhibition effect on different cancer cell lines (in words)” value was “significant inhibition effect”.

`CCOC(=O)C1=C(C)NC(C)=C(C(=O)OCC)C1c1ccccc1/C=C/C(=O)OC(C)(C)C` [Lacidipine (Lacipil, Motens), Lacidipine] was tested, and the “inhibition effect on different cancer cell lines (in words)” value was “significant inhibition effect”.

For `CCOC(=O)[C@H](CCc1ccccc1)N[C@H]1CCCN2CCC[C@@H](C(=O)O)N2C1=O` [Cilazapril monohydrate (Inhibace), Cilazapril monohydrate], the “inhibition effect on different cancer cell lines (in words)” value was “significant inhibition effect”.

`COc1ccccc1OCCNCC(O)COc1cccc2[nH]c3ccccc3c12` (stereo not drawn) [Carvedilol] was tested, and the “inhibition effect on different cancer cell lines (in words)” value was “significant inhibition effect”.

`O=C(NCCO[N+](=O)[O-])c1cccnc1` [Nicorandil (Ikorel), Nicorandil] was tested, and the “inhibition effect on different cancer cell lines (in words)” value was “significant inhibition effect”.

`Cc1ccccc1N1C(=O)c2cc(S(N)(=O)=O)c(Cl)cc2NC1C` (stereo not drawn) [Metolazone (Zaroxolyn), Metolazone] was tested, and the “inhibition effect on different cancer cell lines (in words)” value was “significant inhibition effect”.

In the case of `C[C@H](Cc1cc2c(c(C(N)=O)c1)N(CCCO)CC2)NCCOc1ccccc1OCC(F)(F)F` [Silodosin (Rapaflo), Silodosin], the “inhibition effect on different cancer cell lines (in words)” value is reported as “significant inhibition effect”.

In the case of `CC[C@H](C)C(=O)O[C@H]1CCC=C2C=C[C@H](C)[C@H](CC[C@@H]3C[C@@H](O)CC(=O)O3)[C@H]21` [Mevastatin], the “inhibition effect on different cancer cell lines (in words)” value is reported as “significant inhibition effect”.

In the case of `NS(=O)(=O)c1cc(Cl)c(Cl)c(S(N)(=O)=O)c1` [Dichlorphenamide (Diclofenamide), Dichlorphenamide], the “inhibition effect on different cancer cell lines (in words)” value is reported as “significant inhibition effect”.

For `CCCCc1oc2ccccc2c1C(=O)c1cc(I)c(OCCN(CC)CC)c(I)c1` [Amiodarone HCl], the “inhibition effect on different cancer cell lines (in words)” value was “significant inhibition effect”.

`COc1ccc(C2C(=O)c3ccccc3C2=O)cc1` [Anisindione] was tested, and the “inhibition effect on different cancer cell lines (in words)” value was “significant inhibition effect”.

For `Cc1ccc(N(CC2=NCCN2)c2cccc(O)c2)cc1` [Phentolamine mesilate], the “inhibition effect on different cancer cell lines (in words)” value was “significant inhibition effect”.

For `Cc1cc2c(cc1S(N)(=O)=O)S(=O)(=O)CCC2` [Meticrane], the “inhibition effect on different cancer cell lines (in words)” value was “significant inhibition effect”.

`Cc1ccc(C)c(OCCCC(C)(C)C(=O)O)c1` [Gemfibrozil (Lopid), Gemfibrozil] was tested, and the “inhibition effect on different cancer cell lines (in words)” value was “significant inhibition effect”.

With `N[C@@H]1CCCCN(c2c(F)cc3c(=O)c(C(=O)O)cn(C4CC4)c3c2Cl)C1` [Besifloxacin HCl (Besivance), Besifloxacin HCl] the “inhibition effect on different cancer cell lines (in words)” value was “significant inhibition effect”.

For `CCCCCCCCOc1ccccc1C(=O)Nc1ccc(C(=O)OCC[N+](C)(CC)CC)cc1` [Otilonium Bromide], the “inhibition effect on different cancer cell lines (in words)” value was “significant inhibition effect”.

With `CC(Oc1c(Cl)cccc1Cl)C1=NCCN1` (stereo not drawn) [Lofexidine HCl] the “inhibition effect on different cancer cell lines (in words)” value was “significant inhibition effect”.

For `CCCCC1=NC2(CCCC2)C(=O)N1Cc1ccc(-c2ccccc2-c2nnn[nH]2)cc1` [Irbesartan (Avapro), Irbesartan], the “inhibition effect on different cancer cell lines (in words)” value was “significant inhibition effect”.

In the case of `COc1cc2nc(N(C)CCCNC(=O)C3CCCO3)nc(N)c2cc1OC` (stereo not drawn) [Alfuzosin hydrochloride (Uroxatral), Alfuzosin hydrochloride], the “inhibition effect on different cancer cell lines (in words)” value is reported as “significant inhibition effect”.

For `COC(=O)[C@H](c1ccccc1Cl)N1CCc2sccc2C1` [Clopidogrel (Plavix), Clopidogrel], the “inhibition effect on different cancer cell lines (in words)” value was “significant inhibition effect”.

In the case of `C[C@H](N[C@@H](CCc1ccccc1)C(=O)O)C(=O)N1CCC[C@H]1C(=O)O.O.O` [Enalaprilat dehydrate], the “inhibition effect on different cancer cell lines (in words)” value is reported as “significant inhibition effect”.

For `CCNC(=O)CCC/C=C\C[C@@H]1[C@@H](/C=C/[C@@H](O)CCc2ccccc2)[C@H](O)C[C@@H]1O` [Bimatoprost], the “inhibition effect on different cancer cell lines (in words)” value was “significant inhibition effect”.

With `CC(S)C(=O)NCC(=O)O` (stereo not drawn) [Tiopronin (Thiola), Tiopronin] the “inhibition effect on different cancer cell lines (in words)” value was “significant inhibition effect”.

With `O=C(O[C@H]1CN2CCC1CC2)N1CCc2ccccc2[C@@H]1c1ccccc1` [Solifenacin succinate] the “inhibition effect on different cancer cell lines (in words)” value was “significant inhibition effect”.

In the case of `CCCc1nc(C(C)(C)O)c(C(=O)OCc2oc(=O)oc2C)n1Cc1ccc(-c2ccccc2-c2nnn[nH]2)cc1` [Olmesartan medoxomil (Benicar), Olmesartan medoxomil], the “inhibition effect on different cancer cell lines (in words)” value is reported as “significant inhibition effect”.
